Data: patent US20210284638A1 (Saint Louis University, priority 2018, published 2021)

Assays:
Type in all cases: binding
[1] = biological target: T1, Recombinant human integrin αVβ6 (Homo sapiens, UniProt P06756+P18564); assay: Solid Phase Receptor Assay (SPRA) for αVβ6 function; settings: plate-bound human LAP
T1 construct: purchased R&D Systems 3817-AV
Procedure: E. Solid Phase Receptor Assay (SPRA) for αVβ6 Function
(§1) Wells were washed 3 times with 150 μL TBS+, and then 150 μL of blocking buffer (TBS+ with 1% bovine serum albumin, Sigma A7906) was added. The plate was incubated for 1 hr at 37° C., and then washed 3× with TBS+ buffer. […] Compounds were diluted to 20 μM and then 1 μL was added to each well of the plate according to a standard template with each sample repeated in triplicate. After incubation for two hours at room temperature, the plate was washed 3× with 150 μL of TBS+ buffer. To each well, 50 μL of biotinylated anti-αV antibody (R&D Systems, BAF1219) at 0.5 μg/mL in TBS+/0.1% BSA were added and the plate was covered and incubated for 1 hr at room temperature. After washing the plate 3× with 150 μL of TBS+ buffer, 50 μL of streptavidin-conjugated horseradish peroxidase (R&D Systems, DY998) diluted in TBS+ blocking buffer were added to the wells and the plate incubated for 20 min at room temperature. The plate was washed 3× with TBS+ buffer followed by 50 μL of TMB substrate (Sigma T4444) added to each well in the dark and the plate incubated for 10 min at room temperature. 25 μL of 1.0 M phosphoric acid was added as a stop solution and the plates were read at 450 nm using a Spectramax plate reader.

[2] = biological target: T2, Recombinant human integrin αVβ8 (Homo sapiens, UniProt P06756+P26012); assay: Solid Phase Receptor Assay for αVβ8 function; settings: plate-bound human LAP; read-out: αVβ8 SPRA IC50
T2 construct: purchased R&D Systems 4135-AV
Procedure: F. Solid Phase Receptor Assay (SFRA) for αVβ8 Function
Wells were washed 3 times with 150 μL TBS+ and then 150 μL of blocking buffer (TBS+ with 1% bovine serum albumin, Sigma A7906) was added. The plate was incubated for 1 hr at 37° C. and then washed 3× with TBS+. […] Compounds were diluted to 20 μM and 1 μL was added to each well of the plate according to a standard template with each sample repeated in triplicate. After incubation for two hours at room temperature, the plate was washed 3× with 150 μL of TBS+. To each well, 50 μL of biotinylated anti-αV antibody (R&D Systems, BAF1219) at 1 μg/mL in TBS+/0.1% BSA were added and the plate was covered and incubated for 1 hr at room temperature. After washing the plate 3× with 150 μL of TBS+ buffer, 50 μL of streptavidin-conjugated horseradish peroxidase (R&D Systems, DY998) diluted in TBS+ blocking buffer were added to the wells and the plate incubated for 20 min at room temperature. The plate was washed 3× with TBS+ followed by 50 μL of TMB substrate (Sigma T4444) added to each well in the dark and the plate incubated for 10 min at room temperature. 25 μL of 1.0 M phosphoric acid was added as a stop solution and the plates were read at 450 nm using a Spectramax plate reader.

[3] = biological target: T3, Recombinant human integrin αVβ5 (Homo sapiens, UniProt P06756+P18084); assay: Solid Phase Receptor Assay (SPRA) for αVβ5 function; settings: plate-bound human vitronectin
T3 construct: purchased R&D Systems 2528-AV
Procedure: D. Solid Phase Receptor Assay (SPRA) for αVβ5 Function
as §1, with “150 μL TBS+ and then” for “150 μL TBS+, and then”, “at 37° C. and then” for “at 37° C., and then”, “well, 50 μl of biotinylated” for “well, 50 μL of biotinylated”, “TBS+/0.1% BSA at 0.5 μg/mL were added” for “TBS+/0.1% BSA were added”, “the plate covered and” for “the plate was covered and”, “incubated for 5 min at” for “incubated for 10 min at”

[4] = biological target: T4, Recombinant human integrin α5β1 (Homo sapiens, UniProt P05556+P08648); assay: Solid Phase Receptor Assay (SPRA) for α5β1 function; settings: plate-bound human fibronectin
T4 construct: purchased R&D Systems 3230-A5
Procedure: A. Solid Phase Receptor Assay (SPRA) for α5β1 Function
Wells were washed 3 times with 150 μL TBS+ and then 150 μL of blocking buffer (TBS+ with 1% bovine serum albumin, Sigma A7906) was added. The plate was incubated for 1 hr at 37° C. and then washed 3× with TBS+ buffer. […] Compounds were diluted to 20 μM and then 1 μL was added to each well of the plate according to a standard template with each sample repeated in triplicate. After incubation for two hours at room temperature, the plate was washed 3× with 150 μL of TBS+ buffer. To each well, 50 μL of biotinylated anti-α5 antibody (R&D Systems, BAF1864) at 0.5 μg/mL in TBS+/0.1% BSA were added and the plate covered and incubated for 1 hr at room temperature. After washing the plate 3× with 150 μL of TBS+ buffer, 50 μL of streptavidin-conjugated horseradish peroxidase (R&D Systems, DY998) diluted in TBS+ blocking buffer were added to the wells and the plate incubated for 20 min at room temperature. The plate was washed 3× with TBS+ buffer followed by 50 μL of room temperature TMB substrate (Sigma, T4444) added to each well in the dark and the plate incubated for 25 min at room temperature. 25 μL of 1.0 M phosphoric acid was added as a stop solution and the plates were read at 450 nm using a Spectramax plate reader.

T1 sequence (P06756 31-992 limits assumed): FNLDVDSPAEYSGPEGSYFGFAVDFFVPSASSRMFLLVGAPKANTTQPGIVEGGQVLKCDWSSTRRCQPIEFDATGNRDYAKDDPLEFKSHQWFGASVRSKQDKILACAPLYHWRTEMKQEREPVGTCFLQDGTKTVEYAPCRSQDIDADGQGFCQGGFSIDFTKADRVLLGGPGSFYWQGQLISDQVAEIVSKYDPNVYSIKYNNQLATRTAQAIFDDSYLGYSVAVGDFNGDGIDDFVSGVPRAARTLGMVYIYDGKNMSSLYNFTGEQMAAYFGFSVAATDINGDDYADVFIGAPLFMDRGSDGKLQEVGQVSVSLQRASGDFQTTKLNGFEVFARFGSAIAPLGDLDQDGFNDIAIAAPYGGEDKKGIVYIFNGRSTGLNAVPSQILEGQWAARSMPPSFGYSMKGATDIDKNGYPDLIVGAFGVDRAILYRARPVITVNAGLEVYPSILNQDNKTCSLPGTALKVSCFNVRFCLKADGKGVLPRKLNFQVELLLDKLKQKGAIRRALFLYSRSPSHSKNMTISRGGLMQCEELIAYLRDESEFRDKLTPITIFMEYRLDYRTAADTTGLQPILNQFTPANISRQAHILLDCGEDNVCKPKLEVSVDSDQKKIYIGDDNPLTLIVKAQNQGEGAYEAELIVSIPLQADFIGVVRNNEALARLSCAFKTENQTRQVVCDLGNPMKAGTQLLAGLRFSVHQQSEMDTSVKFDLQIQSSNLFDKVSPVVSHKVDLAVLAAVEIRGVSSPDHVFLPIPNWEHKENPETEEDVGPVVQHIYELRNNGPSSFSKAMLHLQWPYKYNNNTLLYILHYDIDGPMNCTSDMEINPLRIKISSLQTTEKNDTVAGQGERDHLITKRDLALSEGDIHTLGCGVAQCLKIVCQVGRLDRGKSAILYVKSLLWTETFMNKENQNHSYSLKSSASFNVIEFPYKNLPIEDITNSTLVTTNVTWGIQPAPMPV
T1 sequence (P18564 22-707 limits assumed): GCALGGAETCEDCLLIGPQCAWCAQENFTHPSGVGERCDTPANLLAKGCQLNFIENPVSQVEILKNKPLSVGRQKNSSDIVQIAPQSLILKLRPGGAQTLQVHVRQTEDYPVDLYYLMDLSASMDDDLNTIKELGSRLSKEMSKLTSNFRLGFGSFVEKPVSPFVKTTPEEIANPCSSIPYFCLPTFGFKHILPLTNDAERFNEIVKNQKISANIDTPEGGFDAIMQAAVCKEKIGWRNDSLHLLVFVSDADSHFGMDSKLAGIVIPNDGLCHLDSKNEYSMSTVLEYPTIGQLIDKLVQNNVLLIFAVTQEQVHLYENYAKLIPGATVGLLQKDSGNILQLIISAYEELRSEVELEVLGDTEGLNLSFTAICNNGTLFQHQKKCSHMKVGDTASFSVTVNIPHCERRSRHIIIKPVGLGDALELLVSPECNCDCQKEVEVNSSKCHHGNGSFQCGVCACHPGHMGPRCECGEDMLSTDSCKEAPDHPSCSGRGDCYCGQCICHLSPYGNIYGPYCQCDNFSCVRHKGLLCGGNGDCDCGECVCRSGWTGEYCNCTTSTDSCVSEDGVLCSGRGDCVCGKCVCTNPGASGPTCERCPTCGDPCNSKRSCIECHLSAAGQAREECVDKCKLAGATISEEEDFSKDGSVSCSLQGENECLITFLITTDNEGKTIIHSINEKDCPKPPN
T3 sequence (P06756 31-992 limits assumed): as the sequence (P06756 31-992 limits assumed) above
T3 sequence (P18084 24-719 limits assumed): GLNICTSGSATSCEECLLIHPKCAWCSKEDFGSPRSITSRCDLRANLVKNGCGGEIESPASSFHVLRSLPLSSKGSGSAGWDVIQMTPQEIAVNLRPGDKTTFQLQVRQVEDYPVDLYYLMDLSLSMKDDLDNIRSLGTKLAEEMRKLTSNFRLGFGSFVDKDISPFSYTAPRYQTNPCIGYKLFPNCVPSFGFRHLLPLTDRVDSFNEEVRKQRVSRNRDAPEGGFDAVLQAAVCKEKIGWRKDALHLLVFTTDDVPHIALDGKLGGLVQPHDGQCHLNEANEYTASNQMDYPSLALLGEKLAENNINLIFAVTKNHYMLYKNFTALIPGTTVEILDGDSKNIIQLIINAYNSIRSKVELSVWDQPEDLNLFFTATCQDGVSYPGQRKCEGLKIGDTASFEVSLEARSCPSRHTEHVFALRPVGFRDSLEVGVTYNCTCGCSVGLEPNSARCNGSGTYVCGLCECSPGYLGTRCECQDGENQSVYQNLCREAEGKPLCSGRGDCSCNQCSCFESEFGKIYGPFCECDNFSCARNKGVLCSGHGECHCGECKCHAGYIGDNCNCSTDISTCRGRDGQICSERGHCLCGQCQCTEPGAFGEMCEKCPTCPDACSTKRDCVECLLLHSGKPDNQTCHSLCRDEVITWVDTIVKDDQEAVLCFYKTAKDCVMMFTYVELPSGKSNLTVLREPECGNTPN
T2 sequence (P06756 31-992 limits assumed): as the sequence (P06756 31-992 limits assumed) above
T2 sequence (P26012 43-684 limits assumed): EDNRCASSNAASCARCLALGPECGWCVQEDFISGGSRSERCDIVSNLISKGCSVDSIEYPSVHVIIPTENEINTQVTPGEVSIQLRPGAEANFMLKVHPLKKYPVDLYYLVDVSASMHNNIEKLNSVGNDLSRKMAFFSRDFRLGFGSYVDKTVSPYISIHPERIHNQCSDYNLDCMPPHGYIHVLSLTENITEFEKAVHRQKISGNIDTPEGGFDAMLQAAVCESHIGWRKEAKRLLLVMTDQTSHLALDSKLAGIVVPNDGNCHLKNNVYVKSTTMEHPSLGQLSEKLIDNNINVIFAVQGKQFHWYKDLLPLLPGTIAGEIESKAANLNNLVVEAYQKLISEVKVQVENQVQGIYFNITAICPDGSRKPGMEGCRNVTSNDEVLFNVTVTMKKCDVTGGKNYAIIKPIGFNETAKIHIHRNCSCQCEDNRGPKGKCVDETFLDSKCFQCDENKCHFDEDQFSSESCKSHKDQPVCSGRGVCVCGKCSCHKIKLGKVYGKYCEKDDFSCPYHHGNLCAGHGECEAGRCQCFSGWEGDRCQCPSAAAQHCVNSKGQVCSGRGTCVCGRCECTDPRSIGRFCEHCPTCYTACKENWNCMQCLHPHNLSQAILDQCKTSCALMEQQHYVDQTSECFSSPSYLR
T4 sequence (P08648 42-995 limits assumed): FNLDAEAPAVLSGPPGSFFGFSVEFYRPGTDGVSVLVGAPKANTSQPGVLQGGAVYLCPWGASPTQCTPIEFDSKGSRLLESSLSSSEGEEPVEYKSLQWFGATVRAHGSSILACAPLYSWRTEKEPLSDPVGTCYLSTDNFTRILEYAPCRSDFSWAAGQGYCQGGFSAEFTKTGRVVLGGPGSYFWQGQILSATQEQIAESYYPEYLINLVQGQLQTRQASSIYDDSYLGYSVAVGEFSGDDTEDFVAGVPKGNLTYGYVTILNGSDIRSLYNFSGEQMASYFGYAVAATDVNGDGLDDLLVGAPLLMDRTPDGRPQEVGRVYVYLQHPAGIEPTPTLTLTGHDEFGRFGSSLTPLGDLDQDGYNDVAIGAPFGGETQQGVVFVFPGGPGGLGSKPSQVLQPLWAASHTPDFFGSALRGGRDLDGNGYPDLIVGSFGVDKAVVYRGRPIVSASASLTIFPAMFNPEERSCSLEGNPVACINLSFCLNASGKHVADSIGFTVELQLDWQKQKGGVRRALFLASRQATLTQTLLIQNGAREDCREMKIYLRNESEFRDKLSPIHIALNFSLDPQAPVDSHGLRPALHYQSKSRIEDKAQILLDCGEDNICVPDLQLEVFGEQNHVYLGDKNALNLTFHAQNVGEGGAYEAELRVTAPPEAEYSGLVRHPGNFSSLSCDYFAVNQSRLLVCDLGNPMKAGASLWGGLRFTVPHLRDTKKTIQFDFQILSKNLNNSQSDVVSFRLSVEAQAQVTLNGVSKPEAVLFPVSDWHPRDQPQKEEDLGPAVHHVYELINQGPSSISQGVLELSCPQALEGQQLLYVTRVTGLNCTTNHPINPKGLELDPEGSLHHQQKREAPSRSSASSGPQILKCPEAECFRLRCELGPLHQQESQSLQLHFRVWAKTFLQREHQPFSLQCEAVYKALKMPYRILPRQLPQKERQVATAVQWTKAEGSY
T4 sequence (P05556 21-728 limits assumed): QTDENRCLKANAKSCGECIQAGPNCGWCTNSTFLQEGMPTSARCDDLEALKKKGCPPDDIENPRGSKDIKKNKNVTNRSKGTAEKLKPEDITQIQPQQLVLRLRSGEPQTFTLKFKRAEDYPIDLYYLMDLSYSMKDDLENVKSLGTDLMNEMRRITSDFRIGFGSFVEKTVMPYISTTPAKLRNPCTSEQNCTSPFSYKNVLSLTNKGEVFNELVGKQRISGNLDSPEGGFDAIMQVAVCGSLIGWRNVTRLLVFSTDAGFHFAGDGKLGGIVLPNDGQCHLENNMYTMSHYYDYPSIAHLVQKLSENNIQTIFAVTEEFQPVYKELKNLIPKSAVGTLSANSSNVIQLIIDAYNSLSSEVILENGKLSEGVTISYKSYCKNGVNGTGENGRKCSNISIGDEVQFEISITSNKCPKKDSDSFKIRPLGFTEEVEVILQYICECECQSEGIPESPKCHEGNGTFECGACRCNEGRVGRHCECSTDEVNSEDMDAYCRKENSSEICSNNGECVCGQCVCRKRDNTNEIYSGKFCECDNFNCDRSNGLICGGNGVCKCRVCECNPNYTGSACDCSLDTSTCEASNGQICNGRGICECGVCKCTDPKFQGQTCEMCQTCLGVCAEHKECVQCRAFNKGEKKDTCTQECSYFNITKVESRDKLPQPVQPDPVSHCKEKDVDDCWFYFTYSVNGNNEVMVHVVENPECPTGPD

COc1cc(C(CC(=O)O)Cc2cc(OCCc3ccc4c(n3)NCCC4)n(C)n2)cc(C23CC4CC(CC(C4)C2)C3)c1OC (stereo not drawn) [Example 14, 3-[3-(1-adamantyl)-4,5-dimethoxy-phenyl]-4-[1-methyl-5-[2-(5,6,7,8-tetrahydro-1,8-naphthyridin-2-yl)ethoxy]pyrazol-3-yl]butanoic acid]
IC50 [1]: 170 nM | IC50 [2]: 170 nM | IC50 [3]: 9 nM | IC50 [4]: 47 nM

Cn1nc(CC(CC(=O)O)c2cc3c(c(C(C)(C)C)c2)OCO3)cc1OCCc1ccc2c(n1)NCCC2 (stereo not drawn) [Example 15]
IC50 [1]: 60 nM | IC50 [2]: 120 nM | IC50 [3]: 0.2 nM | IC50 [4]: 28 nM

Cn1nc(CC(CC(=O)O)c2cc3c(c(C(C)(C)C)c2)OCCO3)cc1OCCc1ccc2c(n1)NCCC2 (stereo not drawn) [Example 16, 3-(8-(tert-butyl)-2,3-dihydrobenzo[b][1,4]dioxin-6-yl)-4-(1-methyl −5-(2-(5,6,7,8-tetrahydro-1,8-naphthyridin-2-yl)ethoxy)-1H-pyrazol-3-yl) butanoic acid]
IC50 [1]: 19 nM | IC50 [2]: 41 nM | IC50 [3]: 0.7 nM | IC50 [4]: 18 nM

Cn1nc(CC(CC(=O)O)c2cc(C(C)(C)C)ccc2Br)cc1OCCc1ccc2c(n1)NCCC2 (stereo not drawn) [Example 17, 3-(2-bromo-5-(tert-butyl)phenyl)-4-(1-methyl-5-(2-(5,6,7,8-tetrahydro-1,8-naphthyridin-2-yl)ethoxy)-1H-pyrazol-3-yl)butanoic acid]
IC50 [1]: 1900 nM | IC50 [2]: 110 nM | IC50 [3]: 230 nM | IC50 [4]: 120 nM

Cn1nc(CC(CC(=O)O)c2cc(C(C)(C)C)ccc2C#N)cc1OCCc1ccc2c(n1)NCCC2 (stereo not drawn) [Example 18, 3-(5-(tert-butyl)-2-cyanophenyl)-4-(1-methyl-5-(2-(5,6,7,8-tetrahydro-1,8-naphthyridin-2-yl)ethoxy)-1H-pyrazol-3-yl)butanoic acid]
IC50 [1]: 12 nM | IC50 [2]: 3 nM | IC50 [3]: 4 nM | IC50 [4]: 4 nM

Cn1nc(CC(CC(=O)O)c2cc(C(C)(C)C)ccc2F)cc1OCCc1ccc2c(n1)NCCC2 (stereo not drawn) [Example 19, 3-(5-(tert-butyl)-2-fluorophenyl)-4-(1-methyl-5-(2-(5,6,7,8-tetrahydro-1,8-naphthyridin-2-yl)ethoxy)-1H-pyrazol-3-yl)butanoic acid]
IC50 [1]: 180 nM | IC50 [2]: 58 nM | IC50 [3]: 0.6 nM | IC50 [4]: 10 nM

Cn1nc(CC(CC(=O)O)c2cc(C(C)(C)C)ccc2OC(F)(F)F)cc1OCCc1ccc2c(n1)NCCC2 (stereo not drawn) [Example 20, 3-(5-(tert-butyl)-2-(trifluoromethoxy)phenyl)-4-(1-methyl-5-(2-(5,6,7,8-tetrahydro-1,8-naphthyridin-2-yl)ethoxy)-1H-pyrazol-3-yl)butanoic acid]
IC50 [1]: 220 nM | IC50 [2]: 67 nM | IC50 [3]: 590 nM | IC50 [4]: 9 nM

COc1ccc(C2(C(F)F)CC2)cc1C(CC(=O)O)Cc1cc(OCCc2ccc3c(n2)NCCC3)n(C)n1 (stereo not drawn) [Example 21, 3-[5-[1-(difluoromethyl)cyclopropyl]-2-methoxy-phenyl]-4-[1-methyl-5-[2-(5,6,7,8-tetrahydro-1,8-naphthyridin-2-yl)ethoxy]pyrazol-3-yl]butanoic acid]
IC50 [1]: 320 nM | IC50 [2]: 140 nM | IC50 [3]: 290 nM | IC50 [4]: 29 nM

COc1ccc(C(C)(C)O)cc1C(CC(=O)O)Cc1cc(OCCc2ccc3c(n2)NCCC3)n(C)n1 (stereo not drawn) [Example 22, 3-(5-(2-hydroxypropan-2-yl)-2-methoxyphenyl)-4-(1-methyl-5-(2-(5,6,7,8-tetrahydro-1,8-naphthyridin-2-yl)ethoxy)-1H-pyrazol-3-yl)butanoic acid]
IC50 [1]: 160 nM | IC50 [2]: 79 nM | IC50 [3]: 10 nM | IC50 [4]: 2 nM

COc1ccc(C2COC2)cc1C(CC(=O)O)Cc1cc(OCCc2ccc3c(n2)NCCC3)n(C)n1 (stereo not drawn) [Example 23, 3-[2-methoxy-5-(oxetan-3-yl)phenyl]-4-[1-methyl-5-[2-(5,6,7,8-tetrahydro-1,8-naphthyridin-2-yl)ethoxy]pyrazol-3-yl]butanoic acid]
IC50 [1]: 140 nM | IC50 [2]: 190 nM | IC50 [3]: 29 nM | IC50 [4]: 36 nM

COc1ccc(S(F)(F)(F)(F)F)cc1C(CC(=O)O)Cc1cc(OCCc2ccc3c(n2)NCCC3)n(C)n1 (stereo not drawn) [Example 24, 3-[2-methoxy-5-(pentafluoro-sulfanyl)phenyl]-4-[1-methyl-5-[2-(5,6,7,8-tetrahydro-1,8-naphthyridin-2-yl)ethoxy]pyrazol-3-yl]butanoic acid]
IC50 [1]: 48 nM | IC50 [2]: 33 nM | IC50 [3]: 96 nM | IC50 [4]: 25 nM

COc1c(C(C)C)cc(C(CC(=O)O)Cc2cc(OCCc3ccc4c(n3)NCCC4)n(C)n2)cc1C(C)C (stereo not drawn) [Example 25, 3-(3,5-diisopropyl-4-methoxy-phenyl)-4-[1-methyl-5-[2-(5,6,7,8-tetrahydro-1,8-naphthyridin-2-yl)ethoxy]pyrazol-3-yl]butanoic acid]
IC50 [1]: 160 nM | IC50 [2]: 18 nM | IC50 [3]: 78 nM | IC50 [4]: 2 nM

COc1c(C(C)C)cc(C(CC(=O)O)Cc2csc(CCCc3ccc4c(n3)NCCC4)n2)cc1C(C)C (stereo not drawn) [Example 26, 3-(3,5-diisopropyl-4-methoxy-phenyl)-4-[2-[3-(5,6,7,8-tetrahydro-1,8-naphthyridin-2-yl)propyl]thiazol-4-yl]butanoic acid]
IC50 [1]: 330 nM | IC50 [2]: 38 nM | IC50 [3]: 610 nM | IC50 [4]: 61 nM

CC(C)(C)c1cc(C(CC(=O)O)Cc2csc(CCCc3ccc4c(n3)NCCC4)n2)cc(C(C)(C)C)c1 (stereo not drawn) [Example 27, 3-(3,5-di-tert-butylphenyl)-4-(2-(3-(5,6,7,8-tetrahydro-1,8-naphthyridin-2-yl)propyl)thiazol-4-yl)butanoic acid]
IC50 [1]: 1000 nM | IC50 [2]: 55 nM | IC50 [3]: 1100 nM | IC50 [4]: 43 nM

COc1ccc(C(C)(C)C)cc1C(CC(=O)O)Cc1csc(CCCc2ccc3c(n2)NCCC3)n1 (stereo not drawn) [Example 28, 3-(5-(tert-butyl)-2-methoxyphenyl)-4-(2-(3-(5,6,7,8-tetrahydro-1,8-naphthyridin-2-yl)propyl)thiazol-4-yl)butanoic acid]
IC50 [1]: 310 nM | IC50 [2]: 31 nM | IC50 [3]: 440 nM | IC50 [4]: 25 nM
